Assay results as given in patent US7723467B2, “Antimicrobial compounds” (New England Medical Center Hospitals, Inc., priority 2000, dated 2010).
Where two headings read alike, the source gives them in different places. Non-standard residues stand in square brackets, D forms with d. No end group written: not given here.

What was measured:
Assay type in all cases: cell-based
[1] = test system: Escherichia coli NCTC 8196
Protocol: (§1) The assays are standardized by using a predictable predetermined number of cells, and the lowest observed concentration of the agent that inhibits growth is defined as the minimum inhibitory concentration (MIC).
(§2) Antimicrobial activity, specifically antibacterial activity, was assayed using cells of each of Staphylococcus aureus NCTC 4163, Escherichia coli NCTC 8196, Pseudomonas aeruginosa NCTC 6749, Proteus vulgaris NCTC 4635, and Enterococcus faecalis ATCC 19212. To determine the minimum inhibitory concentration (MIC), the microdilution broth method, well-known to one of ordinary skill in the art of microbiology, was used. Cells of each bacterial strain were collected in the logarithmic phase of growth, and resuspended in nutrient broth. The concentration of colony-forming units (CFU) per milliliter was quantified by measuring absorption of light at 600 nm (A600).
(§3) Peptide samples were dissolved in nutrient broth (pH 7.0) and diluted serially. The sample solution (100 μl) was mixed with the diluted bacterial suspension (100 μl). Mixtures containing 105 bacterial CFU, and from 1% to 0.003% of test peptides, were incubated for 24 h at 37° C. […] The indolicidin antibacterial property with cells of S. aureus was used as a positive control reference.

microorganisms tested = test: Antimicrobial activity across the microorganisms tested; settings: compared with SP
Protocol: as §2, §3
(§4) Antifungal activity was assayed using Candida albicans NCTC 10231 as a target fungus. Candida cells in the logarithmic phase of growth were suspended in dextrose broth medium at a density of 10^5 CFU/ml. A mixture of the sample solution (100 μl) and the fungal suspension (100 μl) was incubated for 24 h at 37° C.

[2] = test system: Enterococcus faecalis ATCC 19212
Protocol: as §1, §2, §3

[3] = test system: Staphylococcus aureus NCTC 4163
Protocol: as §1, §2, §3

[4] = test system: Candida albicans NCTC 10231
Protocol: Anti-fungal activity is similarly assayed, using log phase vegetative fungal cells.
as §4

[5] = test system: Proteus vulgaris NCTC 4635
Protocol: as §1, §2, §3

[6] = test system: Pseudomonas aeruginosa NCTC 6749
Protocol: as §1, §2, §3

microorganism = test: Mixing experiments of SP with SP antagonist
[7] = 100% inhibition of growth, 24 h at 37° C., nutrient broth pH 7.0
[8] = dextrose broth, 24 h at 37° C., turbidity

Substance | Minimal Inhibitory Concentration MIC (%) E. coli [1, 7] | MIC fold higher (weaker potency) on the other bacteria tested (microorganisms tested) | Minimal Inhibitory Concentration MIC (%) E. faecalis [2, 7] | Minimal Inhibitory Concentration MIC (%) S. aureus [3, 7] | potency against C. albicans relative to SP or bradykinin [4] | activity compared with indolicidin ([4]; cells of C. albicans) | Minimal Inhibitory Concentration MIC (%) C. albicans [4, 8] | Minimal Inhibitory Concentration MIC (%) P. vulgaris [5, 7] | Minimal Inhibitory Concentration MIC (%) P. aeruginosa [6, 7] | blocking of the antimicrobial effect by the presence of SP antagonist (microorganism) | antimicrobial potency compared with indolicidin ([3]; cells of S. aureus) | antifungal properties against C. albicans [4] | Minimal Inhibitory Concentration MIC (%) E. coli ([1]; NCTC 8196, 24 h, pH 7) | Minimal Inhibitory Concentration MIC (%) E. faecalis ([2]; ATCC 19212, 24 h, pH 7) | Minimal Inhibitory Concentration MIC (%) S. aureus ([3]; NCTC 4163, 24 h, pH 7) | Minimal Inhibitory Concentration MIC (%) C. albicans ([4]; NCTC 10231, 24 h) | Minimal Inhibitory Concentration MIC (%) P. vulgaris ([5]; NCTC 4635, 24 h, pH 7) | Minimal Inhibitory Concentration MIC (%) P. aeruginosa ([6]; NCTC 6749, 24 h, pH 7)
Arg-D-Pro-Lys-Pro-Gln-Gln-D-Trp-Phe-D-Trp-Leu-MetNH2 (R[dP]KPQQ[dW]F[dW]LM-NH2; N-terminus assumed; SMILES CSCC[C@H](NC(=O)[C@H](CC(C)C)NC(=O)[C@@H](Cc1c[nH]c2ccccc12)NC(=O)[C@H](Cc1ccccc1)NC(=O)[C@@H](Cc1c[nH]c2ccccc12)NC(=O)[C@H](CCC(N)=O)NC(=O)[C@H](CCC(N)=O)NC(=O)[C@@H]1CCCN1C(=O)[C@H](CCCCN)NC(=O)[C@H]1CCCN1C(=O)[C@@H](N)CCCNC(=N)N)C(N)=O; listed as Homo sapiens) [SEQ ID NO: 2] | 0.13% | 10- to 20 fold | 0.13% | 0.13% | approximately 10 times | comparable to that of indolicidin | 0.03% | 0.13% | 0.13% |  |  |  |  |  |  |  |  | 
Arg-Pro-Lys-Pro-Gln-Gln-Phe-Phe-Gly-Leu-MetNH2 [SEQ ID NO: 1] | 0.06% |  | 0.13% | 0.007% |  |  | 0.25% | 0.13% | 0.13% | not to be blocked | equally potent to indolicidin | found to have antifungal properties |  |  |  |  |  | 
Ile-Leu-Pro-Trp-Lys-Trp-Pro-Trp-Trp-Pro-Trp-Arg-Arg-NH2 (ILPWKWPWWPWRR-NH2; listed as Homo sapiens) [Indolicidin, reference compound] | 0.007% |  |  | 0.003% |  |  | 0.015% |  |  |  |  |  |  |  |  |  |  | 
RPPGFSPFR [Bradykinin, reference compound] |  |  |  |  |  |  |  |  |  |  |  |  | 0.5% | >1% | 0.5% | 0.25% | 0.5% | 1.0%
